Measurements published in ChEMBL document CHEMBL2150949, “Dibenzocycloheptanoids from the leaves of Cinnamomum subavenium” (J Nat Prod, 2012).

Assay: Inhibition of Bacillus stearothermophilus alpha-glucosidase type 4
Set-up: species or system Geobacillus stearothermophilus

| SMILES | IC50 [µM] |
| --- | --- |
| OCCc1ccc(O)c(O)c1 [HYDROXYTYROSOL] | 109 |
| COCC1=CCc2cc(OC)ccc2-c2cc(O[C@@H]3O[C@H](CO)[C@@H](O)[C@H](O)[C@H]3O)c(OC)cc21 [SUBAVENOSIDE E] | 19 |
| C[C@H]1O[C@H](O[C@H]2[C@H](O)[C@@H](O)[C@@H](O[C@H]3[C@H](O)[C@@H](O)C(O)O[C@@H]3CO)O[C@@H]2CO)[C@H](O)[C@@H](O)[C@@H]1N[C@H]1C=C(CO)[C@@H](O)[C@H](O)[C@H]1O (some centres undefined) [ACARBOSE] | 0.034 |
| COc1cc([C@@H]2Oc3c(OC)cc(CCCO)cc3[C@@H]2CO[C@@H]2OC[C@@H](O)[C@H](O)[C@H]2O)ccc1O | 77.1 |
| CC/C=C/CCO[C@@H]1O[C@H](CO)[C@@H](O)[C@H](O)[C@H]1O | > 150 |
| C=CCc1ccc(O[C@@H]2O[C@H](CO[C@@H]3OC[C@](O)(CO)[C@H]3O)[C@@H](O)[C@H](O)[C@H]2O)cc1 | > 150 |
| COc1cc2c(cc1O)-c1ccccc1CC=C2CO[C@@H]1O[C@H](CO)[C@@H](O)[C@H](O)[C@H]1O [SUBAVENOSIDE A] | 142 |
| COCC1=CCc2cc(OC)ccc2-c2cc(O)c(OC)cc21 | 118 |
| COc1cc2c(cc1O[C@@H]1O[C@H](CO)[C@@H](O)[C@H](O)[C@H]1O)-c1ccccc1CC=C2CO [SUBAVENOSIDE D] | 50.7 |

The next lines start with the values.

| IC50 [µM] | SMILES |
| --- | --- |
| 28.3 | O=C1C[C@@H](c2ccc(O)cc2)Oc2cc(O)cc(O[C@@H]3O[C@H](CO)[C@@H](O)[C@H](O)[C@H]3O)c21 |
| 39.8 | O=C1C[C@H](c2ccc(O)cc2)Oc2cc(O)cc(O[C@@H]3O[C@H](CO)[C@@H](O)[C@H](O)[C@H]3O)c21 |
| 60.5 | O=C(CCc1ccc(O)cc1)c1c(O)cc(O)cc1O[C@@H]1O[C@H](CO)[C@@H](O)[C@H](O)[C@H]1O [PHLORIZIN] |
| > 150 | CCCC(=O)c1c(O)cc(O)cc1O[C@@H]1O[C@H](CO)[C@@H](O)[C@H](O)[C@H]1O |
| 110 | C[C@@H]1O[C@@H](OC[C@H]2O[C@@H](Oc3c(-c4ccc(O)cc4)oc4cc(O)cc(O)c4c3=O)[C@H](O)[C@@H](O)[C@@H]2O)[C@H](O)[C@H](O)[C@H]1O [NICOTIFLOROSIDE] |
